Read-outs that look alike come from different tables or passages of the source.
How the values were obtained:
[1] = target: T1, cathepsin K (Homo sapiens, UniProt P43235); details: value from WO 02057270; read-out: Ki indicated in WO 02057270; cited from earlier work
T1 sequence (P43235 115-329): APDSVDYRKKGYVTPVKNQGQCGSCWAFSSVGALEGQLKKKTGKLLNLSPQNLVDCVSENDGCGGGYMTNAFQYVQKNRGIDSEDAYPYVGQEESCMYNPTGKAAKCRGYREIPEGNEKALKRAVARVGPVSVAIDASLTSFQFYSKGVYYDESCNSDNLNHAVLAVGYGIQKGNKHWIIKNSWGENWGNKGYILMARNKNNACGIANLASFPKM

[2] = target: T1, cathepsin K; assay: Cathepsin K proteolytic activity, inhibition studies (Ki) with fluorogenic peptide substrate; format: biochemical; parameters: made in house; host or cells: not fixed: E coli, Pichia or Baculovirus systems named as options; details: side by side trials in the same assay system; read-out: Cathepsin K K^1
Protocol: Convenient assays for cathepsin K are carried out using human recombinant enzyme, such as that described in PDB.
The recombinant cathepsin K can be expressed in a variety of commercially available expression systems including E coli, Pichia and Baculovirus systems. The purified enzyme is activated by removal of the prosequence by conventional methods.
Standard assay conditions for the determination of kinetic constants used a fluorogenic peptide substrate, typically H-D-Ala-Leu-Lys-AMC, and were determined in either 100 mM Mes/Tris, pH 7.0 containing 1 mM EDTA and 10 mM 2-mercaptoethanol or 100 mMNa phosphate, imM EDTA, 0.1% PEG4000 pH 6.5 or 100 mM Na acetate, pH 5.5 containing 5 mM EDTA and 20 mM cysteine, in each case optionally with […] as stabiliser. The enzyme concentration used was 5 nM. The stock substrate solution was prepared at 10 mM in DMSO. Screens were carried out at a fixed substrate concentration of 60 μM and detailed kinetic studies with doubling dilutions of substrate from 250 μM. The total DMSO concentration in the assay was kept below 3%. […] Product fluorescence (excitation at 390 nm, emission at 460 nm) was monitored with a Labsystems Fluoroskan Ascent fluorescent plate reader. […]
Potential inhibitors are screened using the above assay with variable concentrations of test compound. […] Ki values were calculated according to equation 1 […]

In the case of `CC(C)CC(NC(=O)c1ccc(Oc2ccccc2)cc1)C(=O)N1CC[C@H]2OCC(=O)[C@H]21` (stereo partly drawn), the Ki [1] is given as 100 nM and the Ki [2] is given as 66 nM.

`CC(C)CC(NC(=O)c1ccc(Oc2ccccc2)cc1)C(=O)N1C[C@H](F)[C@H]2OCC(=O)[C@H]21` (stereo partly drawn) showed a Ki [2] of 5.3 nM.

Source: US7915300B2, “Cysteine protease inhibitors” (Medivir AB, priority 2004, dated 2011)
